{
  "source": "patent US5032582A",
  "about": "“Method for treating fungal infections with amphotericin B/cholesterol sulfate composition” (Liposome Technology, Inc., priority 1989, dated 1991)",
  "origin": "cited, not measured here",
  "settings": "in vivo",
  "data": [
    {"compound": "CC(C)CCC[C@@H](C)[C@H]1CC[C@H]2[C@@H]3CC=C4C[C@@H](OS(=O)(=O)[O-])CC[C@]4(C)[C@H]3CC[C@]12C.[Na+]", "note": "[cholesterol sulfate, cholesterol 3-sulphate, sodium salt]", "values": [
      {"measurement": "toxicity", "value": "no known toxicity"}
    ]}
  ]
}
